# “Also recorded” adds a separate entry of the source.
# Tests used:
# HL-1 cardiac cells = test: CytoTox-Glo cytotoxicity assay (cell viability); type: cell-based; details: CytoTox-Glo assay in 100 µM solutions after 24 h incubation
# Procedure: Cell viability was assessed using CytoTox-Glo™ Cytotoxicity Assay according to the manufacturing procedure (Promega GmbH). Briefly, HL-1 cardiac cells were cultivated for 24 h in black-walled, clear-bottom 96-well micro-plates (Corning) covered with fibronectin in DMEM, containing different concentrations of the tested compound (10,000 cells/well). Luminescence of a luminogenic peptide substrate was measured before and after addition of the lysis reagent (digitonin). The viable cell contribution was determined by a subtractive method. 0.1% DMSO treated cell were taken as a control.
# (§1) The membrane permeability of the derivatives was determined using cell-free transport models (PermeaPad®, innoME GmbH), and permeability rates (Pe), which are a measure of how fast a compound can cross a membrane, were established (Table 1).
# [1] = Membrane permeability, PermeaPad plate (cell-free transport model); type: in vitro ADME
# Procedure: Membrane permeability was assessed using PermeaPad® Plate according to the manufacturing procedure (innoME GmbH, Espelkamp, Germany). Briefly, 200 µl water was added into acceptor plate. 200 µl of 100 - 500 µM test compound in water was added directly to the well membranes of the donor plate. The donor plate contains a biomimetic membrane for simulating passive mass transfer through different barriers in the body. Then the donor plate was placed into the acceptor plate wells and incubated at room temperature for 24 hours in dark. To determine peak absorbance of test compounds, absorbance spectra of acceptor solutions and initial solutions for each test compound were read out. The Permeability Rate (Pe) was calculated using the formula: Pe = C × −ln(1−(ODA)/(ODE)) cm/s, [formula]
# where ODA is the absorbance of acceptor solution, ODE is the absorbance of the standard solution; if the compound is able to permeabilize the membrane and fully reach equilibrium, 250 µM will be the final concentration of solution in the donor and acceptor wells. The coefficient C was calculated using the formula: C = (VD × VA)/((VD+VA) × Area × time), [formula] where VA - acceptor volume (cm^3), VD - donor volume (cm^3), membrane area 0.24 cm^2, time is 86,400 s.
# as §1
# SERCA2a = biological target: T1, SERCA2a (Mus musculus, UniProt O55143); test: Caffeine-induced Ca2+ release assay on HL-1 cells; type: cell-based; parameters: key to SERCA2a HL-1 effect class: +++: a strong effect, comparable to or greater than that of a known compounds at a given concentration (25 µM in RyR2 R-CEPIA1er assay, 10 µM in caffeine assay and on microsomal membrane vesicles); ++: moderate effect; +: observable effect; -: no effect
# T1 construct: host or cells: HL-1 cardiac cells
# Procedure: HL-1 cardiac cells (SCC065, Merck KGaA, Darmstadt, Germany) were cultivated in Claycomb's Medium (51800C, Merck KGaA, Darmstadt, Germany), supplemented with Glutamax, 10% fetal bovine serum, 0.9% Penicillin/Streptomycin and 0.1 mM Noradrenaline (Merck KGaA, Darmstadt, Germany) on fibronectin/gelatin (Merck KGaA, Darmstadt, Germany) coated culture bottles or plates two days before plating.
# HL-1 cardiac cells (50000 per well) were cultivated for 24 h in black-walled, clear-bottom 96-well micro-plates (Corning, Amsterdam, The Netherlands) covered with fibronectin/gelatin (Merck KGaA, Darmstadt, Germany) in a humidified incubator at 37 °C and 5% CO2.
# Changes in Ca^2+ concentration were measured on a multiwell plate reader TECAN Spark 20M using FLIPR 6 Calcium Assay Kit from Molecular Devices (Molecular Devices LLC, München, Germany) at 37 °C. The 1000 × stock solutions of the test compounds were prepared in DMSO. 100 µl solution of test compound in Tyrode's solution containing FLIPR Calcium 6 dye was incubated for 2 hours at 37°C and 5% COz in a humidified incubator. The time courses were recorded in each well. Fluorescence was evoked at 485 nm excitation wavelength and read out in a bottom-read mode at 525 nm. Data were recorded every 2 s, exposure - 20 flashes, excitation bandwidth - 10 nm, emission bandwidth - 15 nm. To initiate Ca^2+ influx, 25 µl of 50 mM caffeine solution in Tyrode's solution containing 2 mM CaCl2 was injected in each well (speed 100 µl/s) at 10 s time point, resulting in 10 mM final concentration in the well. The differences between the caffeine induced peak minus basal fluorescence, ΔFCaff, were taken for the analysis. The Tyrode's solution + 0.1 v/v% DMSO was used as a control. The dose response curves were calculated using the software package GraphPad Prism version 8.3.1. All data are presented as mean ± S.D. from 8 independent experiments. Y=Bottom + (Top-Bottom)/(1+10^((LogEC50-X)*HillSlope)) was used where HillSlope describes the steepness of the curve, Top and Bottom are plateaus in the units of the Y axis.
# The SERCA2a activity of the compounds was confirmed in two orthogonal biochemical assays: caffeine-induced Ca^2+ release assay and nicotinamide adenine dinucleotide (NADH) assay on microsomal membrane vesicles from mouse heart ventricles (mouse SER) and HEK-293T cells (HEK-293 ER). The effect of caffeine-induced Ca^2+ release in HL-1 cells, immortalized mouse cardiomyocytes, treated with the cytosolic Ca^2+ indicator FLIPR Calcium 6 (Molecular Devices) was investigated.
# When caffeine binds to the RyR channel, it interacts with specific amino acids of the protein, and this interaction causes conformational changes in the protein's structure [A. des Georges, O. B. Clarke, R. Zalk, Q. Yuan, K. J. Condon, R. A. Grassucci, W. A. Hendrickson, A. R. Marks, J. Frank, Structural Basis for Gating and Activation of RyR1. Cell 2016, 167, 145 - 157.e17]. This opens the RyR2 channel pore, enabling the mass release of calcium ions from the SER Ca^2+ store.
# T1 sequence (O55143 1-998 isoform O55143-2): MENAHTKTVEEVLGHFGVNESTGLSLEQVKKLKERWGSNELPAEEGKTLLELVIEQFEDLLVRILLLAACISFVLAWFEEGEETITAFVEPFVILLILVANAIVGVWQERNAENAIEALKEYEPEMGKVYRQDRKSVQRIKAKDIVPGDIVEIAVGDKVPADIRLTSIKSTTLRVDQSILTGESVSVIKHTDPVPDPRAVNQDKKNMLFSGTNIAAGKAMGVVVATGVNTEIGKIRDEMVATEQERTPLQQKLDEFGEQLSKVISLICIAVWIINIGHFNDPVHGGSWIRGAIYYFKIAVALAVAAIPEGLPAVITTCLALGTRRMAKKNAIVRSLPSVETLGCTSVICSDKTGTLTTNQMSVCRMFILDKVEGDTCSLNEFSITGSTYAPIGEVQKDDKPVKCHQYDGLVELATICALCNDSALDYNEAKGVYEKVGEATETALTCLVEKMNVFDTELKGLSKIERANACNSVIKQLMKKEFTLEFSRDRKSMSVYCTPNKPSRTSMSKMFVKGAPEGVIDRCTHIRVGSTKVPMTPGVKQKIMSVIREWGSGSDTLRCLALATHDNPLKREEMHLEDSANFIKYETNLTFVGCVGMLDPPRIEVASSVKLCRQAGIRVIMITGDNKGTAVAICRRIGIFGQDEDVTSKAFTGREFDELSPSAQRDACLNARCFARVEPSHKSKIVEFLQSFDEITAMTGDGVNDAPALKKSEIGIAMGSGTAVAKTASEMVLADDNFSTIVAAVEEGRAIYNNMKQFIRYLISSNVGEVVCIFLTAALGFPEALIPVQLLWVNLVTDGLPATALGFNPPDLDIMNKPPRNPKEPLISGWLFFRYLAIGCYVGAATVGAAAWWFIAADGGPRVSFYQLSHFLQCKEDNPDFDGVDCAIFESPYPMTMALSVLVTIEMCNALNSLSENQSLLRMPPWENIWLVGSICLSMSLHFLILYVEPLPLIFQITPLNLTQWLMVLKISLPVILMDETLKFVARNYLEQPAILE
compound,measurement,setting,value
"COc1ccc2c(c1)CN(C)CCS2 [Compound S107, reference compound]",Viability,HL-1 cardiac cells,98%
same,Pe rating in words (low / medium / high; poor),[1],medium
same,Pe,"[1]; permeability rate, room temperature, 24 hours",1.2 10^-6 cm/s
same,SERCA2a HL-1 effect class,SERCA2a; 10 µM in caffeine assay,-
same,"effect in caffeine-induced Ca^2+ release assay, in words","SERCA2a; HL-1 cells incubated 2 h with compound, 10 mM caffeine",no concentration dependent effect; also recorded: didn't show any effects on SR Ca^2+ content
